Measured values reported in patent publication US4470840A, “1-Triacontanol plant growth stimulator formulations” (Biochemical Research Corporation, priority 1981, dated 1984).

Tests used:
[1] = test system: Pea Seedlings (cv. Dark Skin); experiment: Greenhouse trial: dry weight of seedlings; type: in vivo, peas; conditions: 1-triacontanol 0.1 mg/liter; for Dry wt.: sum of four plants
Method: (§1) In general, greenhouse trials were conducted as follows: eight to twelve seeds were sown per pot in Peat-Lite® Mix and received an average of 100 ml of water per day. After plants had the third true leaf (average), the various formulations were applied to the leaves as a fine mist at air temperatures listed in Table 1. Temperatures above 20° C., preferably 25°-30° C., are preferred.
(§2) The 1-triacontanol formulation most generally used consisted of a concentrate containing 5 mg of 1-triacontanol dissolved in 1 liter of acetone, with 20 ml of the concentrate being further dissolved to 1 liter with water having a pH between 8 and 10, with over a pH of 11 also being effective. The pH was adjusted with aqueous NaOH and the concentrate added just prior to spraying.
(§3) When other plant growth substances were added to the formulations, these were added either to the concentrate in the polar organic solvent or alternatively in the aqueous solution, depending on the solubility of the plant growth substance. All metal salts were added to the water used to spray the 1-triacontanol formulations. After spraying, preferably about four to nine days or more, plants were harvested with roots, and fresh weights were obtained. Plants were then dried in an oven, preferably at a temperature below 100° C., until constant weight was obtained, and dry weight values were obtained for each plot. Subtraction of the dry weights from the fresh weights gave the water uptake weights (water content) of each plot. The weights of the above mentioned seedlings were compared to the control weights to obtain the percent increases.
(§4) It is particularly advantageous to arrange each of the potted plants in size range categories corresponding to the number of replications used. For example, if five replications are employed, plants are divided into five size categories, normally measured by the height of the plants. Treatments are then assigned randomly within each block (size category). This removes the variation due to plant size for statistical purposes, as is well practiced in the art. The resulting data is analyzed using any appropriate means, which may include the least significant difference method (L.S.D. method), Duncan's multiple range test, as used here (Biometrics, 11: 1 (1955)), or other means.

[2] = test system: Field Corn (cv. Trojan TXS 94); experiment: Field trial: crop yield and seed size; type: in vivo; conditions: 1-triacontanol 0.25 mg/liter; for % increase (wt. of seed) / % increase (wt./15 ears) / Wt. of seed / Wt./15 ears: TRIACON-10, pH 10.4; for Percent increases (size of seeds) / Wt. of treated seed: cv. Trojan TXS 94, 1000 seeds; for Wt. of treated seed: control seed 252
Method: (§5) Field trials were conducted in Northern Virginia on plots that were replicated at least five items. Plots consisted of single rows of plants in blocks of three or more plots, with treatments being assigned randomly within each block.
(§6) Plants were fertilized with the fertilizers described in Table 1, and sprayed at air temperatures listed in the same Table. Spraying was usually avoided under windy conditions to avoid drift. In the examples set forth herein, data were treated in a similar manner to those found in the greenhouse trials, with analysis of variance performed for each trial, and the use of a suitable statistical method for the analysis of results, preferably Duncan's multiple range test.

[3] = test system: Field Corn Seedlings (cv. Trojan TXS 94, Pioneer 3780, WF9 X Bear 38); experiment: Greenhouse trial: dry weight and water uptake of seedlings after foliar spraying; type: in vivo; conditions: cv. Trojan TXS 94, no metal salt, 1-triacontanol 0.1 mg/liter
Method: as §1, §2, §3, §4

[4] = test system: Hybrid Sweet Corn Seedlings (cv. Silver Queen); experiment: as above; type: in vivo
Method: as §1, §2, §3, §4

Peas (cv. Dark Skin) = experiment: Field trial: marketable yield; type: in vivo; conditions: 1-triacontanol 0.25 mg/liter, pH 8.7; for Fresh wt (marketable yield): per 12 plants per plot
Method: as §5, §6

Radishes (cv. Champion) = experiment: Field trial: crop yield; type: in vivo; conditions: 1-triacontanol 0.25 mg/liter, pH 9.7; for Dry wt. (crop yield): per twenty plants, without foliage
Method: as §5, §6

[5] = test system: Hybrid Sweet Corn Seedlings (cv. Silver Queen); experiment: Lengths of stems and total plant length of seedlings sprayed Day 7; type: in vivo; conditions: T = 1-triacontanol 0.1 mg/liter
[6] = test system: Tomatoes (cv. Ponderosa Red Beefsteak, Red Cherry, Rutgers VF); experiment: Field trial: marketable yield and seed size; type: in vivo; conditions: for Percent increases (size of seeds) / Wt. of treated seed: 100 seeds; for Percent increases (size of seeds) / Wt. of treated seed / Fresh wt. (marketable yield) / Percent increases (marketable yield): 1-triacontanol 0.25 mg/liter; for Wt. of treated seed: control seed 0.32; for Fresh wt. (marketable yield) / Percent increases (marketable yield): pH 9 to 10
Method: as §5, §6

[7] = CaCl2 50.0 mM, IAA 10 μM (Formulation 14)
[8] = 14-day old seedlings, 1-triacontanol 0.1 mg/liter alone, no plant growth substance (Formulation 2)
[9] = 14-day old seedlings, metal ion 9 mM (none in the last line) with 1-triacontanol 0.1 mg/liter, pH 8 to 10, Formulation 4
[10] = Formulation 4, 1-triacontanol 0.5 mg/liter, 10 mM CaCl2, pH 8.1, test seed first generation (sprayed) vs control first (not sprayed)
[11] = Formulation 4, 1-triacontanol 0.5 mg/liter, 10 mM CaCl2, pH 8.1, test seed second generation (first and second sprayed) vs control second (first and second not sprayed)
[12] = Formulation 4, 1-triacontanol 0.5 mg/liter, 10 mM CaCl2, pH 8.1, test seed second generation (first and second sprayed) vs control second (second was sprayed only)
[13] = Formulation 4, 1-triacontanol 0.5 mg/liter, 10 mM CaCl2, pH 8.1, test seed second generation (first was sprayed only) vs control second (first and second not sprayed)
[14] = cv. Ponderosa Red Beefsteak, CaCl2 5 mM, no IAA
[15] = cv. Ponderosa Red Beefsteak, CaCl2 50 mM, IAA 0.01 mM
[16] = cv. Ponderosa Red Beefsteak, CaCl2 5 mM, no IAA (Formulation 12)
[17] = cv. Ponderosa Red Beefsteak, CaCl2 50 mM, IAA 10 μM (Formulation 16)
[18] = cv. Ponderosa Red Beefsteak, previous year
[19] = cv. Red Cherry, CaCl2 5 mM, no IAA (Formulation 12)
[20] = cv. Red Cherry, CaCl2 50 mM, IAA 10 μM (Formulation 16)
[21] = cv. Rutgers VF, CaCl2 5 mM, no IAA (Formulation 12)
[22] = cv. Rutgers VF, CaCl2 50 mM, IAA 10 μM (Formulation 16)

CCCCCCCCCCCCCCCCCCCCCCCCCCCCCCO [1-Triacontanol, 1-triacontanol] was tested, and the “Percent increases (dry weight)” value ([1]; CaCl2 0.0 mM, no IAA) was -5%, the Dry wt. ([1]; CaCl2 0.0 mM, no IAA, control 0.83) was 0.79 gm and the “Percent increases (dry weight)” value ([1]; CaCl2 1.0 mM, no IAA) was “+1%”. The Dry wt. ([1]; CaCl2 1.0 mM, no IAA) was 0.84 gm, the “Percent increases (dry weight)” value ([1]; CaCl2 3.0 mM, no IAA) was -7% and the Dry wt. ([1]; CaCl2 3.0 mM, no IAA) was 0.77 gm. The “Percent increases (dry weight)” value ([1]; CaCl2 5.0 mM, no IAA) was “+7%”, the Dry wt. ([1]; CaCl2 5.0 mM, no IAA) was 0.89 gm and the “Percent increases (dry weight)” value ([1]; CaCl2 10.0 mM, no IAA) was “+18%”. The Dry wt. ([1]; CaCl2 10.0 mM, no IAA) was 0.98 gm, the “Percent increases (dry weight)” value ([1]; CaCl2 15.0 mM, no IAA) was “+33%” and the Dry wt. ([1]; CaCl2 15.0 mM, no IAA) was 1.10 gm. For the same compound, the “Percent increases (dry weight)” value [1, 7] was “+46%”, the Dry wt. [1, 7] was 1.21 gm and the “% increase (wt. of seed)” value ([2]; CaCl2 1 mM, no IAA) was “+27%”. For the same compound, the “% increase (wt./15 ears)” value ([2]; CaCl2 1 mM, no IAA) was “+33%”, the Wt. of seed ([2]; CaCl2 1 mM, no IAA, control 1740 g) was 2211 g and the Wt./15 ears ([2]; CaCl2 1 mM, no IAA, control 1777 g) was 2356 g. The “% increase (wt. of seed)” value ([2]; CaCl2 3 mM, IAA 0.01 mM) was “+34%”, the “% increase (wt./15 ears)” value ([2]; CaCl2 3 mM, IAA 0.01 mM) was “+46%” and the Wt. of seed ([2]; CaCl2 3 mM, IAA 0.01 mM) was 2342 g. For the same compound, the Wt./15 ears ([2]; CaCl2 3 mM, IAA 0.01 mM) was 2950 g, the “Percent increases (size of seeds)” value ([2]; CaCl2 1 mM, no IAA) was “+18%” and the “Wt. of treated seed” value ([2]; CaCl2 1 mM, no IAA) was 297 g. For the same compound, the “Percent increases (size of seeds)” value ([2]; CaCl2 3 mM, IAA 0.01 mM) was “+27%”, the “Wt. of treated seed” value ([2]; CaCl2 3 mM, IAA 0.01 mM) was 319 g and the Dry wt. increase ([3]; Formulation 4) was -3%. For the same compound, the Dry wt. increase ([3]; Formulation 11) was -8%, the “Increase in dry weight” value ([4]; 1-triacontanol 0.1 mg/liter, Formulation 4, additive 9 mM (none in the last line)) was “+21%” and the “Increases, H2O uptake” value [4, 8] was “+16%”. The “Increases, dry wt.” value [4, 8] was “+20%”, the “% increase (dry weight)” value [4, 9] was “+21%” and the “% increase (water uptake)” value [4, 9] was “+16%”. For the same compound, the Dry weight ([4]; 14-day old seedlings, metal ion 9 mM (none in the last line) with 1-triacontanol 0.1 mg/liter, pH 8 to 10, Formulation 4, control 0.86 g) was 1.04 g, the Water uptake ([4]; 14-day old seedlings, metal ion 9 mM (none in the last line) with 1-triacontanol 0.1 mg/liter, pH 8 to 10, Formulation 4, control 8.7 g) was 10.1 g and the “Increases, H2O uptake” value ([4]; 14-day old seedlings, no metal salt, 1-triacontanol 0.1 mg/liter, Formulation 1 as printed) was “+16%”. For the same compound, the “Increases, H2O uptake” value [4, 10] was “+41%”, the “Increases, dry wt.” value [4, 10] was “+44%” and the “Increases, H2O uptake” value [4, 11] was “+78%”. For the same compound, the “Increases, dry wt.” value [4, 11] was “+80%”, the “Increases, H2O uptake” value [4, 12] was “+46%” and the “Increases, dry wt.” value [4, 12] was “+41%”. For the same compound, the “Increases, H2O uptake” value [4, 13] was “+40%”, the “Increases, dry wt.” value [4, 13] was “+44%” and the “Increases, dry wt.” value ([4]; foliar, 0.1 ug/mL) was “+20%”. The “Percent increases (marketable yield)” value (Peas (cv. Dark Skin); CaCl2 10 mM, no IAA) was “+35%”, the “Fresh wt (marketable yield)” value (Peas (cv. Dark Skin); CaCl2 10 mM, no IAA, control 59) was 78 gm and the “Percent increases (marketable yield)” value (Peas (cv. Dark Skin); CaCl2 15 mM, no IAA) was “+63%”. The “Fresh wt (marketable yield)” value (Peas (cv. Dark Skin); CaCl2 15 mM, no IAA) was 97 gm, the “Percent increases (marketable yield)” value (Peas (cv. Dark Skin); CaCl2 50 mM, IAA 10 μM) was “+32%” and the “Fresh wt (marketable yield)” value (Peas (cv. Dark Skin); CaCl2 50 mM, IAA 10 μM) was 79 gm. The “Percent increases (marketable yield)” value (Peas (cv. Dark Skin); CaCl2 75 mM, IAA 10 μM) was “+69%”, the “Fresh wt (marketable yield)” value (Peas (cv. Dark Skin); CaCl2 75 mM, IAA 10 μM) was 100 gm and the Percent increases (crop yield) (Radishes (cv. Champion); CaCl2 10 mM, no IAA) was 32%. For the same compound, the “Dry wt. (crop yield)” value (Radishes (cv. Champion); CaCl2 10 mM, no IAA, control 93 g) was 123 g, the “Percent increases (crop yield)” value (Radishes (cv. Champion); CaCl2 50 mM, IAA 10 μM) was “+69%” and the “Dry wt. (crop yield)” value (Radishes (cv. Champion); CaCl2 50 mM, IAA 10 μM) was 157 g. The “Increase in length "a"” value [5] was 0%, the “Increase in length "b"” value [5] was “+15%” and the “Length "a" (stem to the first leaf)” value ([5]; control 11.5 cm) was 11.5 cm. For the same compound, the “Length "b" (total plant length)” value ([5]; control 25.0 cm) was 28.8 cm, the “Percent increases (size of seeds)” value [6, 14] was “+25%” and the “Wt. of treated seed” value [6, 14] was 0.40 g. The “Percent increases (size of seeds)” value [6, 15] was “+6%”, the “Wt. of treated seed” value [6, 15] was 0.34 g and the “Fresh wt. (marketable yield)” value [6, 16] was 15353 g. For the same compound, the “Percent increases (marketable yield)” value [6, 16] was “+38%”, the “Fresh wt. (marketable yield)” value [6, 17] was 22283 g and the “Percent increases (marketable yield)” value [6, 17] was “+45%”. The “Early yield over controls” value [6, 18] was 72%, the “Late yield over controls” value [6, 18] was 67% and the “Fresh wt. (marketable yield)” value [6, 19] was 5679 g. For the same compound, the “Percent increases (marketable yield)” value [6, 19] was “+26%”, the “Fresh wt. (marketable yield)” value [6, 20] was 6225 g and the “Percent increases (marketable yield)” value [6, 20] was “+38%”. The “Fresh wt. (marketable yield)” value [6, 21] was 14079 g, the “Percent increases (marketable yield)” value [6, 21] was “+7%” and the “Fresh wt. (marketable yield)” value [6, 22] was 20880 g. For the same compound, the “Percent increases (marketable yield)” value [6, 22] was “+59%”.
